Tests used:
Type in all cases: in vivo
[1] = system: dayflower, VA (Virginia (VA) dayflower, Commelina virginica); test: Test F pre-/postemergence: dayflower, VA
In short: (§1)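 0–100 visual control scores, taken 14–21 d after application in the greenhouse. Preemergence treatment was made to silt loam soil at sowing. Postemergence sprays hit 1- to 4-leaf plants (2–18 cm) in peat/vermiculite mix. Surfactant-containing non-phytotoxic solvent served as the vehicle.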

[2] = system: foxtail, green (green foxtail Setaria viridis); test: Test F pre-/postemergence: foxtail, green; settings: Preemergence
In short: as §1

[3] = system: cocklebur (common cocklebur, Xanthium strumarium); test: Test F pre-/postemergence: cocklebur; settings: Preemergence
Description: Seeds of plant species selected from corn (Zea mays), soybean (Glycine max), velvetleaf (Abutilon theophrasti), lambsquarters (Chenopodium album), poinsettia, wild (wild poinsettia, Euphorbia heterophylla), pigweed, palmer (palmer pigweed, Amaranthus palmeri), waterhemp (common waterhemp, Amaranthus rudis), surinam grass (Brachiaria decumbens), crabgrass, Brazil (Brazilian crabgrass, Digitaria horizontalis), panicum, fall (fall panicum Panicum dichotomiflorum), crabgrass, large (large crabgrass, Digitaria sanguinalis), foxtail, giant (giant foxtail, Setaria faberii), foxtail, green (green foxtail Setaria viridis), goosegrass (Eleusine indica), ragweed (common ragweed, Ambrosia elatior), barnyardgrass (Echinochloa crus-galli), sandbur (southern sandbur, Cenchrus echinatus), arrowleaf sida (Sida rhombifolia), ryegrass, Italian (Italian ryegrass, Lolium multiflorum), dayflower, VA (Virginia (VA) dayflower, Commelina virginica), field bindweed (Convolvulus arvensis), cocklebur (common cocklebur, Xanthium strumarium), morningglory (Ipomoea coccinea), nightshade (eastern black nightshade, Solanum ptycanthum), kochia (Kochia scoparia), nutsedge, yellow (yellow nutsedge, Cyperus esculentus), johnsongrass (Sorghum halepense), smartweed (ladysthumb smartweed, Polygonum persicaria), and beggarticks (hairy beggarticks, Bidens pilosa), were planted into a silt loam soil and treated preemergence with test chemicals formulated in a non-phytotoxic solvent mixture which included a surfactant. At the same time, plants selected from these crop and weed species and also pigweed (Amaranthus retroflexus), waterhemp_RES1 (ALS/Triazine resistant common waterhemp, Amaranthus rudis) and waterhemp_RES2 (ALS/HPPD resistant common waterhemp, Amaranthus rudis) were planted in pots containing a planting medium comprising spaghnum peat moss, vermiculite, wetting agent and starter nutrients treated with postemergence applications of some of the test chemicals formulated in the same manner. Plants ranged in height from 2 to 18 cm for postemergence treatments (1- to 4-leaf stage).
Treated plants and controls were maintained in a greenhouse for 14 to 21 days, after which time all species were compared to controls and visually evaluated. Plant response ratings, summarized in Table E, are based on a scale of 0 to 100 where 0 is no effect and 100 is complete control. A dash (-) response means no test result.

[4] = system: foxtail, giant (giant foxtail, Setaria faberii); test: Test F pre-/postemergence: foxtail, giant; settings: Preemergence
In short: as §1

[5] = system: pigweed, palmer (palmer pigweed, Amaranthus palmeri); test: Test F pre-/postemergence: pigweed, palmer
In short: as §1

kochia (Kochia scoparia) = test: Test F pre-/postemergence: kochia; settings: Preemergence
In short: as §1

[6] = system: poinsettia, wild (wild poinsettia, Euphorbia heterophylla); test: Test F pre-/postemergence: poinsettia, wild
In short: as §1

[7] = Preemergence, 16 g ai/ha, scale 0 to 100, 0 no effect, 100 complete control
[8] = Preemergence, 31 g ai/ha, scale 0 to 100, 0 no effect, 100 complete control
[9] = Preemergence, 62 g ai/ha, scale 0 to 100
[10] = Preemergence, 125 g ai/ha, scale 0 to 100
[11] = Preemergence, 250 g ai/ha, scale 0 to 100
[12] = 16 g ai/ha, scale 0 to 100, 0 no effect, 100 complete control
[13] = 31 g ai/ha, scale 0 to 100, 0 no effect, 100 complete control
[14] = Postemergence, 250 g ai/ha, scale 0 to 100
[15] = Postemergence, 16 g ai/ha, scale 0 to 100
[16] = Postemergence, 31 g ai/ha, scale 0 to 100
[17] = Postemergence, 62 g ai/ha, scale 0 to 100
[18] = Postemergence, 125 g ai/ha, scale 0 to 100

CCc1nn(-c2ccc(F)cc2)nc1Cc1ccnc(C(F)(F)F)c1 [Compound 154]
Plant response rating, Dayflower, VA [1, 7]: 0
Plant response rating, Dayflower, VA [1, 8]: 0
Plant response rating, Dayflower, VA [1, 9]: 25
Plant response rating, Dayflower, VA [1, 10]: 70
Plant response rating, Dayflower, VA [1, 11]: 90
Plant response rating, Foxtail, Green [2, 12]: 40
Plant response rating, Foxtail, Green [2, 13]: 75
Plant response rating, Foxtail, Green ([2]; 62 g ai/ha, scale 0 to 100): 100
Plant response rating, Foxtail, Green ([2]; 125 g ai/ha, scale 0 to 100): 100
Plant response rating, Foxtail, Green ([2]; 250 g ai/ha, scale 0 to 100): 100
Plant response rating, Cocklebur [3, 12]: 0
Plant response rating, Cocklebur ([3]; 62 g ai/ha, scale 0 to 100): 0
Plant response rating, Cocklebur ([3]; 250 g ai/ha, scale 0 to 100): 0
Plant response rating, Foxtail, Giant [4, 12]: 5
Plant response rating, Foxtail, Giant [4, 13]: 65
Plant response rating, Foxtail, Giant ([4]; 62 g ai/ha, scale 0 to 100): 100
Plant response rating, Foxtail, Giant ([4]; 125 g ai/ha, scale 0 to 100): 100
Plant response rating, Foxtail, Giant ([4]; 250 g ai/ha, scale 0 to 100): 100
Plant response rating, Pigweed, Palmer [5, 7]: 100
Plant response rating, Pigweed, Palmer [5, 8]: 100
Plant response rating, Pigweed, Palmer [5, 10]: 100
Plant response rating, Pigweed, Palmer [5, 11]: 100
Plant response rating, Kochia (kochia (Kochia scoparia); [12]): 5
Plant response rating, Kochia (kochia (Kochia scoparia); [13]): 25
Plant response rating, Kochia (kochia (Kochia scoparia); 62 g ai/ha, scale 0 to 100): 85
Plant response rating, Kochia (kochia (Kochia scoparia); 125 g ai/ha, scale 0 to 100): 95
Plant response rating, Kochia (kochia (Kochia scoparia); 250 g ai/ha, scale 0 to 100): 98
Plant response rating, Poinsettia, Wild [6, 7]: 0
Plant response rating, Poinsettia, Wild [6, 8]: 0
Plant response rating, Poinsettia, Wild [6, 10]: 25
Plant response rating, Poinsettia, Wild [6, 11]: 85

CCc1nn(-c2ccc(C(F)(F)F)cc2)nc1Oc1ccnc(C(F)(F)F)c1 [Compound 169]
Plant response rating, Dayflower, VA [1, 14]: 20
Plant response rating, Dayflower, VA [1, 15]: 10
Plant response rating, Dayflower, VA [1, 16]: 10
Plant response rating, Dayflower, VA [1, 17]: 10
Plant response rating, Dayflower, VA [1, 18]: 10
Plant response rating, Dayflower, VA [1, 7]: 0
Plant response rating, Dayflower, VA [1, 8]: 5
Plant response rating, Dayflower, VA [1, 9]: 10
Plant response rating, Dayflower, VA [1, 10]: 65
Plant response rating, Dayflower, VA [1, 11]: 75
Plant response rating, Foxtail, Green [2, 12]: 98
Plant response rating, Foxtail, Green [2, 13]: 100
Plant response rating, Foxtail, Green ([2]; 62 g ai/ha, scale 0 to 100): 100
Plant response rating, Foxtail, Green ([2]; 125 g ai/ha, scale 0 to 100): 100
Plant response rating, Foxtail, Green ([2]; 250 g ai/ha, scale 0 to 100): 100
Plant response rating, Cocklebur [3, 12]: 0
Plant response rating, Cocklebur [3, 13]: 0
Plant response rating, Cocklebur ([3]; 62 g ai/ha, scale 0 to 100): 0
Plant response rating, Foxtail, Giant [4, 12]: 70
Plant response rating, Foxtail, Giant [4, 13]: 100
Plant response rating, Foxtail, Giant ([4]; 62 g ai/ha, scale 0 to 100): 100
Plant response rating, Foxtail, Giant ([4]; 125 g ai/ha, scale 0 to 100): 100
Plant response rating, Foxtail, Giant ([4]; 250 g ai/ha, scale 0 to 100): 100
Plant response rating, Pigweed, Palmer [5, 14]: 100
Plant response rating, Pigweed, Palmer [5, 15]: 50
Plant response rating, Pigweed, Palmer [5, 16]: 50
Plant response rating, Pigweed, Palmer [5, 17]: 90
Plant response rating, Pigweed, Palmer [5, 18]: 100
Plant response rating, Pigweed, Palmer [5, 7]: 35
Plant response rating, Pigweed, Palmer [5, 8]: 100
Plant response rating, Pigweed, Palmer [5, 10]: 100
Plant response rating, Pigweed, Palmer [5, 11]: 100
Plant response rating, Kochia (kochia (Kochia scoparia); [12]): 0
Plant response rating, Kochia (kochia (Kochia scoparia); [13]): 95
Plant response rating, Kochia (kochia (Kochia scoparia); 62 g ai/ha, scale 0 to 100): 95
Plant response rating, Kochia (kochia (Kochia scoparia); 125 g ai/ha, scale 0 to 100): 98
Plant response rating, Kochia (kochia (Kochia scoparia); 250 g ai/ha, scale 0 to 100): 98
Plant response rating, Poinsettia, Wild [6, 14]: 85
Plant response rating, Poinsettia, Wild [6, 15]: 50
Plant response rating, Poinsettia, Wild [6, 16]: 60
Plant response rating, Poinsettia, Wild [6, 17]: 60
Plant response rating, Poinsettia, Wild [6, 18]: 70
Plant response rating, Poinsettia, Wild [6, 7]: 0
Plant response rating, Poinsettia, Wild [6, 8]: 0
Plant response rating, Poinsettia, Wild [6, 10]: 40
Plant response rating, Poinsettia, Wild [6, 11]: 98

CCc1nn(-c2ccc(F)c(F)c2)nc1Oc1ccnc(C(F)(F)F)c1 [Compound 171]
Plant response rating, Dayflower, VA [1, 7]: 0
Plant response rating, Dayflower, VA [1, 8]: 0
Plant response rating, Dayflower, VA [1, 9]: 0
Plant response rating, Dayflower, VA [1, 10]: 30
Plant response rating, Dayflower, VA [1, 11]: 30
Plant response rating, Foxtail, Green [2, 12]: 20
Plant response rating, Foxtail, Green [2, 13]: 50
Plant response rating, Foxtail, Green ([2]; 62 g ai/ha, scale 0 to 100): 95
Plant response rating, Foxtail, Green ([2]; 125 g ai/ha, scale 0 to 100): 100
Plant response rating, Foxtail, Green ([2]; 250 g ai/ha, scale 0 to 100): 100
Plant response rating, Cocklebur [3, 12]: 0
Plant response rating, Cocklebur [3, 13]: 0
Plant response rating, Cocklebur ([3]; 62 g ai/ha, scale 0 to 100): 0
Plant response rating, Foxtail, Giant [4, 12]: 40
Plant response rating, Foxtail, Giant [4, 13]: 60
Plant response rating, Foxtail, Giant ([4]; 62 g ai/ha, scale 0 to 100): 100
Plant response rating, Foxtail, Giant ([4]; 125 g ai/ha, scale 0 to 100): 100
Plant response rating, Foxtail, Giant ([4]; 250 g ai/ha, scale 0 to 100): 100
Plant response rating, Pigweed, Palmer [5, 7]: 0
Plant response rating, Pigweed, Palmer [5, 8]: 0
Plant response rating, Pigweed, Palmer [5, 10]: 100
Plant response rating, Pigweed, Palmer [5, 11]: 100
Plant response rating, Kochia (kochia (Kochia scoparia); [12]): 0
Plant response rating, Kochia (kochia (Kochia scoparia); [13]): 0
Plant response rating, Kochia (kochia (Kochia scoparia); 62 g ai/ha, scale 0 to 100): 5
Plant response rating, Kochia (kochia (Kochia scoparia); 125 g ai/ha, scale 0 to 100): 15
Plant response rating, Kochia (kochia (Kochia scoparia); 250 g ai/ha, scale 0 to 100): 98
Plant response rating, Poinsettia, Wild [6, 7]: 0
Plant response rating, Poinsettia, Wild [6, 8]: 0
Plant response rating, Poinsettia, Wild [6, 10]: 10
Plant response rating, Poinsettia, Wild [6, 11]: 10

CCCc1nn(-c2ccc(F)c(F)c2)nc1Oc1ccnc(C(F)(F)F)c1 [Compound 172]
Plant response rating, Dayflower, VA [1, 14]: 50
Plant response rating, Dayflower, VA [1, 16]: 20
Plant response rating, Dayflower, VA [1, 18]: 30
Plant response rating, Dayflower, VA [1, 8]: 40
Plant response rating, Dayflower, VA [1, 10]: 70
Plant response rating, Dayflower, VA [1, 11]: 90
Plant response rating, Foxtail, Green [2, 13]: 75
Plant response rating, Foxtail, Green ([2]; 125 g ai/ha, scale 0 to 100): 100
Plant response rating, Foxtail, Green ([2]; 250 g ai/ha, scale 0 to 100): 100
Plant response rating, Cocklebur ([3]; 250 g ai/ha, scale 0 to 100): 5
Plant response rating, Foxtail, Giant [4, 13]: 100
Plant response rating, Foxtail, Giant ([4]; 125 g ai/ha, scale 0 to 100): 100
Plant response rating, Foxtail, Giant ([4]; 250 g ai/ha, scale 0 to 100): 100
Plant response rating, Pigweed, Palmer [5, 14]: 100
Plant response rating, Pigweed, Palmer [5, 16]: 100
Plant response rating, Pigweed, Palmer [5, 18]: 100
Plant response rating, Pigweed, Palmer [5, 8]: 100
Plant response rating, Pigweed, Palmer [5, 10]: 100
Plant response rating, Pigweed, Palmer [5, 11]: 100
Plant response rating, Kochia (kochia (Kochia scoparia); [13]): 20
Plant response rating, Kochia (kochia (Kochia scoparia); 125 g ai/ha, scale 0 to 100): 100
Plant response rating, Kochia (kochia (Kochia scoparia); 250 g ai/ha, scale 0 to 100): 100
Plant response rating, Poinsettia, Wild [6, 14]: 100
Plant response rating, Poinsettia, Wild [6, 16]: 80
Plant response rating, Poinsettia, Wild [6, 18]: 100
Plant response rating, Poinsettia, Wild [6, 8]: 20
Plant response rating, Poinsettia, Wild [6, 10]: 50
Plant response rating, Poinsettia, Wild [6, 11]: 98
